Experimental data taken from patent US20240059698A1 (Accutar Biotechnology Inc., priority 2022, published 2024).

Columns and labels:
[1] = test system: HCC827-SVD cells (human EGFR exon 20 insertion mutant D770_N771insSVD); experiment: Cell growth inhibition (CellTiter-Glo), HCC827-SVD; type: cell-based; conditions: 72 h, 3 days
Description: (§1) Generation of HCC827-SVD, HCC827-ASV, and HCC827-YVMA cell lines. The HCC827-SVD cell line was generated by first transducing HCC827 cells (ATCC) with lentiviral particles expressing codon-optimized human EGFR exon 20 insertion mutant D770_N771insSVD, and then selecting under 5 µg/mL puromycin treatment for a week. The resulting cells were further transduced with lentiviral particles carrying EGFR sgRNA and CAS9 to knockout the endogenous alleles of EGER and then selected under 500 µg/mL hygromycin B treatment for two weeks. The limiting dilution approach was used to subsequently generate the single clone of the HCC827-SVD stable cell line. Endogenous EGFR knockout was confirmed by Sanger sequencing of cell genomic DNA, and expression of exogenous mutant EGFR was verified by Western blot analysis.
(§2) 2. Cell Growth Inhibition for HCC827, HCC827-SVD, HCC827-ASV, HCC827-YVMA, and A431.
(§3) HCC827(ATCC), HCC827-SVD, HCC827-ASV, and HCC827-YVMA cells were seeded in 96-well plates at 5000 cells/well in 90 μL of RPMI growth medium containing 10% FBS and 1% Penicillin Streptomycin. A431 (ATCC) cells were seeded in 96-well plates at 5000 cells/well in 90 μL of DMEM growth medium containing 10% FBS and 1% Penicillin Streptomycin. Cells were incubated at 37° C. overnight and then administered with 10 μL 10× test compounds prepared in the growth medium at various concentrations. After administration of the compounds, cells were incubated at 37° C. for 3 days. Before the CellTiter-Glo assay, the plates were equilibrated at room temperature for approximately 30 minutes. 100 ul of CellTiter-Glo reagent (Promega) was added to each well. The plates were then incubated at room temperature for 10 minutes and luminescence was recorded by the EnSight® multimode plate reader (PerkinElmer). Table 7 listed selected compounds in cellular growth assay.

[2] = test system: HCC827-YVMA cells (human ERBB2 exon20 insertion mutant A775_G776ins YVMA); experiment: Cell growth inhibition (CellTiter-Glo), HCC827-YVMA; type: cell-based; conditions: 72 h, HCC827-YVMA cells, 3 days, CellTiter-Glo, read-out: Cell growth inhibition, GI50 (nM) HCC827-YVMA
Description: as §1
HCC827-ASV and HCC827-YVMA cell lines were generated in a similar approach as HCC827-SVD, except that HCC827 cells (ATCC) were first transduced with lentiviral particles expressing codon-optimized human EGFR exon 20 insertion mutant V769_D770insASV and human ERBB2 exon20 insertion mutant A775_G776ins YVMA, respectively.
as §2, §3

A GI50 [1] of 200 to 1000 nM and a GI50 [2] of 50 to 200 nM were found for C=CC(=O)N1CCC(c2c[nH]c3ncnc(Nc4ccc(Oc5ccnc(Nc6cnccn6)c5)cc4F)c23)CC1 [Compound 78, 1-(4-(4-((2-fluoro-4-((2-(pyrazin-2-ylamino)pyridin-4-yl)oxy)phenyl)amino)-7H-pyrrolo[2,3-d]pyrimidin-5-yl)piperidin-1-yl)prop-2-en-1-one] in this work.
A GI50 [1] of 200 to 1000 nM and a GI50 [2] of 200 to 1000 nM were found for C=CC(=O)N1CCC(c2c[nH]c3ncnc(Nc4ccc(OCc5ccnc(N6CC7CC7C6)c5)cc4F)c23)CC1 (centres unmarked) [Compound 79, 1-(4-(4-((4-((2-(3-azabicyclo[3.1.0]hexan-3-yl)pyridin-4-yl)methoxy)-2-fluorophenyl)amino)-7H-pyrrolo[2,3-d]pyrimidin-5-yl)piperidin-1-yl)prop-2-en-1-one] in this work.
In the case of C=CC(=O)N1CCC(c2c[nH]c3ncnc(Nc4ccc(OCc5cncc(OC)c5)c(Cl)c4)c23)CC1 [Compound 80, 1-(4-(4-((3-chloro-4-((5-methoxypyridin-3-yl)methoxy)phenyl)amino)-7H-pyrrolo[2,3-d]pyrimidin-5-yl)piperidin-1-yl)prop-2-en-1-one], the GI50 [1] is reported as < 50 nM and the GI50 [2] is reported as < 50 nM.
A GI50 [1] of 50 to 200 nM and a GI50 [2] of 50 to 200 nM were found for C=CC(=O)N1CCC(c2c[nH]c3ncnc(Nc4ccc(OCc5ccnn5CC)c(Cl)c4)c23)CC1 [Compound 81, 1-(4-(4-((3-chloro-4-((1-ethyl-1H-pyrazol-5-yl)methoxy)phenyl)amino)-7H-pyrrolo[2,3-d]pyrimidin-5-yl)piperidin-1-yl)prop-2-en-1-one] in this work.
For C=CC(=O)N1CCC(c2c[nH]c3ncnc(Nc4ccc(Oc5ccnc(-c6cccc(F)c6)c5)cc4F)c23)CC1 [Compound 82, 1-(4-(4-((2-fluoro-4-((2-(3-fluorophenyl)pyridin-4-yl)oxy)phenyl)amino)-7H-pyrrolo[2,3-d]pyrimidin-5-yl)piperidin-1-yl)prop-2-en-1-one], the GI50 [1] was > 1000 nM and the GI50 [2] was 200 to 1000 nM.
A GI50 [1] of 200 to 1000 nM and a GI50 [2] of 50 to 200 nM were found for C=CC(=O)N1CCC(c2c[nH]c3ncnc(Nc4ccc(Oc5ccnc(Nc6ccncn6)c5)cc4F)c23)CC1 [Compound 83, 1-(4-(4-((2-fluoro-4-((2-(pyrimidin-4-ylamino)pyridin-4-yl)oxy)phenyl)amino)-7H-pyrrolo[2,3-d]pyrimidin-5-yl)piperidin-1-yl)prop-2-en-1-one] in this work.
In the case of C=CC(=O)N1CCC(c2c[nH]c3ncnc(Nc4ccc(OCc5ccnc(NC6CCC6)c5)cc4F)c23)CC1 [Compound 84, 1-(4-(4-((4-((2-(cycloButylamino)pyridin-4-yl)methoxy)-2-fluorophenyl)amino)-7H-pyrrolo[2,3-d]pyrimidin-5-yl)piperidin-1-yl)prop-2-en-1-one], the GI50 [1] is reported as < 50 nM and the GI50 [2] is reported as 50 to 200 nM.
A GI50 [1] of 50 to 200 nM and a GI50 [2] of 50 to 200 nM were found for C=CC(=O)N1CCC(c2c[nH]c3ncnc(Nc4ccc(OCc5cn(C(C)C)cn5)c(Cl)c4)c23)CC1 [Compound 85, 1-(4-(4-((3-chloro-4-((1-isopropyl-1H-imidazol-4-yl)methoxy)phenyl)amino)-7H-pyrrolo[2,3-d]pyrimidin-5-yl)piperidin-1-yl)prop-2-en-1-one] in this work.
C=CC(=O)N1CCC(c2c[nH]c3ncnc(Nc4ccc(OCc5cncs5)c(Cl)c4)c23)CC1 [Compound 86, 1-(4-(4-((3-chloro-4-(thiazol-5-ylmethoxy)phenyl)amino)-7H-pyrrolo[2,3-d]pyrimidin-5-yl)piperidin-1-yl)prop-2-en-1-one] was tested, and the GI50 [1] was < 50 nM and the GI50 [2] was < 50 nM.
A GI50 [1] of 50 to 200 nM and a GI50 [2] of 50 to 200 nM were found for C=CC(=O)N1CCC(c2c[nH]c3ncnc(Nc4ccc(OCc5cnc(C(F)(F)F)s5)c(Cl)c4)c23)CC1 [Compound 87, 1-(4-(4-((3-chloro-4-((2-(trifluoromethyl)thiazol-5-yl)methoxy)phenyl)amino)-7H-pyrrolo[2,3-d]pyrimidin-5-yl)piperidin-1-yl)prop-2-en-1-one] in this work.
A GI50 [1] of 50 to 200 nM and a GI50 [2] of 50 to 200 nM were found for C=CC(=O)N1CCC(c2c[nH]c3ncnc(Nc4ccc(OCc5cccc(C6CC6)n5)c(Cl)c4)c23)CC1 [Compound 88, 1-(4-(4-((3-chloro-4-((6-cyclopropylpyridin-2-yl)methoxy)phenyl)amino)-7H-pyrrolo[2,3-d]pyrimidin-5-yl)piperidin-1-yl)prop-2-en-1-one] in this work.
A GI50 [1] of 50 to 200 nM and a GI50 [2] of 50 to 200 nM were found for C=CC(=O)N1CCC(c2c[nH]c3ncnc(Nc4ccc(OCc5cc(C6CC6)ccn5)c(Cl)c4)c23)CC1 [Compound 89, 1-(4-(4-((3-chloro-4-((4-cyclopropylpyridin-2-yl)methoxy)phenyl)amino)-7H-pyrrolo[2,3-d]pyrimidin-5-yl)piperidin-1-yl)prop-2-en-1-one] in this work.
With C=CC(=O)N1CCC(c2c[nH]c3ncnc(Nc4ccc(Oc5ccnc(NC(=O)C(C)(C)C)c5)cc4F)c23)CC1 [Compound 91, N-(4-(4-((5-(1-acryloylpiperidin-4-yl)-7H-pyrrolo[2,3-d]pyrimidin-4-yl)amino)-3-fluorophenoxy)pyridin-2-yl)pivalamide] the GI50 [1] was 200 to 1000 nM and the GI50 [2] was < 50 nM.
A GI50 [1] of 200 to 1000 nM and a GI50 [2] of 200 to 1000 nM were found for C=CC(=O)N1CCC(c2c[nH]c3ncnc(Nc4ccc(Oc5ccnc(N6CC(N(C)C)C6)c5)cc4F)c23)CC1 [Compound 129, 1-(4-(4-((4-((2-(3-(dimethylamino)azetidin-1-yl)pyridin-4-yl)oxy)-2-fluorophenyl)amino)-7H-pyrrolo[2,3-d]pyrimidin-5-yl)piperidin-1-yl)prop-2-en-1-one] in this work.
A GI50 [1] of 50 to 200 nM and a GI50 [2] of 50 to 200 nM were found for C=CC(=O)N1CCC(c2c[nH]c3ncnc(Nc4ccc(Oc5ccnc(N6CC(O)(C(C)C)C6)c5)cc4F)c23)CC1 [Compound 130, 1-[4-[4-[2-fluoro-4-[[2-(3-hydroxy-3-isopropyl-azetidin-1-yl)-4-pyridyl]oxy]anilino]-7H-pyrrolo[2,3-d]pyrimidin-5-yl]-1-piperidyl]prop-2-en-1-one] in this work.
A GI50 [1] of 200 to 1000 nM and a GI50 [2] of 50 to 200 nM were found for C=CC(=O)N1CCC(c2csc3ncnc(Nc4ccc(Oc5ccnc(NC(=O)C6CCCC6)c5)cc4F)c23)CC1 [Compound 161, N-(4-(4-((5-(1-acryloylpiperidin-4-yl)thieno[2,3-d]pyrimidin-4-yl)amino)-3-fluorophenoxy)pyridin-2-yl)cyclopentanecarboxamide] in this work.
In the case of C=CC(=O)N1CCC(c2csc3ncnc(Nc4ccc(Oc5ccnc(NC(=O)C(C)(C)C)c5)cc4F)c23)CC1 [Compound 162, N-(4-(4-((5-(1-acryloylpiperidin-4-yl)thieno[2,3-d]pyrimidin-4-yl)amino)-3-fluorophenoxy)pyridin-2-yl)pivalamide], the GI50 [1] is reported as > 1000 nM and the GI50 [2] is reported as 200 to 1000 nM.
A GI50 [1] of 50 to 200 nM and a GI50 [2] of 50 to 200 nM were found for C=CC(=O)N1CCC(c2n[nH]c3ncnc(Nc4ccc(Oc5cccc(S(=O)(=O)NC6CC(F)(F)C6)c5)cc4F)c23)CC1 [Compound 185, 3-(4-((3-(1-acryloylpiperidin-4-yl)-1H-pyrazolo[3,4-d]pyrimidin-4-yl)amino)-3-fluorophenoxy)-N-(3,3-difluorocycloButyl)benzenesulfonamide] in this work.
A GI50 [1] of 50 to 200 nM and a GI50 [2] of 50 to 200 nM were found for C=CC(=O)N1CCC(c2n[nH]c3ncnc(Nc4ccc(Oc5ccnc(NC(=O)C(C)(C)C)c5)cc4F)c23)CC1 [Compound 192, N-(4-(4-((3-(1-acryloylpiperidin-4-yl)-1H-pyrazolo[3,4-d]pyrimidin-4-yl)amino)-3-fluorophenoxy)pyridin-2-yl)pivalamide] in this work.
